Measured values published in ChEMBL document CHEMBL4350985, “1,3-Dioxane as a scaffold for potent and selective 5-HT1AR agonist with in-vivo anxiolytic, anti-depressant and anti-nociceptive activity” (Eur J Med Chem, 2019).
Calls of active or inactive are those of the source. No cut-off for these calls is given here.

Key:
SH-SY5Y [1] = assay: Neuroprotective activity against H2O2-induced cell death in human SH-SY5Y cells at 1 uM incubated for 24 hrs by MTT assay; assay type: functional
SH-SY5Y [2] = assay: Neuroprotective activity against rotenone-induced cell death in human SH-SY5Y cells at 1 uM incubated for 24 hrs by MTT assay; assay type: functional
[3] = Apparent permeability from basolateral to apical side in dog MDCK2-MDR1 cells incubated for 120 mins by UV-visible spectrophotometry; assay type: ADME, cell-based, Canis lupus familiaris; conditions: MDCK-MDR1
[4] = Tmax in Sprague-Dawley rat plasma at 10 mg/kg, po measured upto 480 mins by LC/MS-MS analysis; assay type: ADME, organism-based
[5] = AUC (0 to t) in Sprague-Dawley rat plasma at 10 mg/kg, po measured upto 480 mins by LC/MS-MS analysis; assay type: ADME, organism-based; conditions: in vivo, 8 h
[6] = AUC (0 to infinity) in Sprague-Dawley rat plasma at 10 mg/kg, po measured upto 480 mins by LC/MS-MS analysis; assay type: ADME, organism-based; parameters: dose 10 mg/kg, route oral, time infinity; conditions: in vivo, 8 h
[7] = Half life in Sprague-Dawley rat plasma at 10 mg/kg, po measured upto 480 mins by LC/MS-MS analysis; assay type: ADME, organism-based
[8] = Half life in Sprague-Dawley rat brain at 10 mg/kg, po measured after 45 to 480 mins by LC/MS-MS analysis; assay type: ADME, organism-based
Rattus norvegicus [9] = assay: Anxiolytic activity at Sprague-Dawley rat assessed as increase in number of open arm entries at 10 to 20 mg/kg, po by EPM test; assay type: functional, organism-based
Rattus norvegicus [10] = assay: Anxiolytic activity in at Sprague-Dawley rat assessed as increase in time spent in central area of open field at 10 mg/kg, po by open field test; assay type: functional, organism-based
Mus musculus = assay: Antinociceptive activity in formalin-induced nociception pain Swiss […] mouse model assessed as perception of II phase of noxious stimulus at 10 mg/kg, ip co-administered with 3 mg/kg, ip 5-HT1AR antagonist WAY-100635 by formalin test; assay type: functional, organism-based

COc1ccccc1OCCNCC1COC(c2ccccc2)(c2ccccc2)OC1.O=C(O)C(=O)O
Activity (SH-SY5Y [1]): 79% | Activity (SH-SY5Y [2]): 61% | Papp B→A at 2 h [3]: 12.6 ×10⁻⁶ cm/s | Tmax [4]: 0.5 h | AUCt [5]: 17.4 nmol·min/g | AUC [6]: 18.1 nmol·min/g | half-life [7]: 1.71 h | half-life [8]: 2.37 h | Activity (Rattus norvegicus [9]): Active | Activity (Rattus norvegicus [10]): Active | inhibition (Mus musculus): inactive
